Source: the NIST ThermoML archive (doi:10.1016/j.jct.2015.08.027)
Numbers after ± are expanded uncertainties.

Legend:
[1] = 101.33 kPa, Liquid, Vibrating tube method
[2] = refractive index (Na D-line) (dimensionless); settings: 101.33 kPa, Liquid, Standard Abbe refractometry
[3] = refractive index (Na D-line) (dimensionless); wn = mass fraction of the nth substance listed; settings: 81.5 kPa, Liquid, Standard Abbe refractometry

Row | SMILES | mass density ([1]; 293.2 K) | mass density ([1]; 298.2 K) | mass density ([1]; 303.2 K) | refractive index ([2]; 293.2 K) | refractive index ([2]; 298.2 K) | refractive index ([2]; 303.2 K) | refractive index ([3]; 293.2 K, w2 = 0.0142) | refractive index ([3]; 293.2 K, w2 = 0.993) | refractive index ([3]; 298.2 K, w2 = 0.0161) | refractive index ([3]; 298.2 K, w2 = 0.9924) | refractive index ([3]; 303.2 K, w2 = 0.0164) | refractive index ([3]; 303.2 K, w2 = 0.9914)
1 | CCCCCCn1cc[n+](C)c1.F[P-](F)(F)(F)(F)F [1-hexyl-3-methylimidazolium hexafluorophosphate] | 1294.91 ± 2.6 kg/m3 | 1290.88 ± 2.6 kg/m3 | 1286.85 ± 2.6 kg/m3 | 1.4176 ± 0.00053 | 1.4164 ± 0.00053 | 1.41515 ± 0.00053 |  |  |  |  |  | 
2 | CCCCCCn1cc[n+](C)c1.F[P-](F)(F)(F)(F)F [1-hexyl-3-methylimidazolium hexafluorophosphate] + O |  |  |  |  |  |  | 1.4164 ± 0.001 | 1.3334 ± 0.00077 | 1.41525 ± 0.00099 | 1.3332 ± 0.0008 | 1.4135 ± 0.00098 | 1.33345 ± 0.00086
3 | CC(C)=O [acetone] | 790.66 ± 1.6 kg/m3 | 784.4 ± 1.6 kg/m3 | 778.7 ± 1.6 kg/m3 | 1.3588 ± 0.00051 | 1.35575 ± 0.00051 | 1.35265 ± 0.00051 |  |  |  |  |  | 
4 | O [water] |  |  |  | 1.33305 ± 0.00049 | 1.3325 ± 0.00049 | 1.33195 ± 0.00049 |  |  |  |  |  | 
